According to ChEMBL document CHEMBL1201862, “PubChem BioAssay data set” (2004):
Active and inactive are the calls of the source.

Tests used:
Paired box protein Pax-8 = Paired box protein Pax-8 (Homo sapiens, UniProt Q06710); experiment: PAX8 transcriptional activity inhibition in RMG-I – RMG-I cells, luciferase, cherry-pick, dose response (AID 687027); assay type: functional, cell-based;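 also: luciferase reporter driven by Pax8 target thyroperoxidase promoter measured by SteadyGlo luminescence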
[1] = OVCAR-3 cell viability loss – plate reader, dry powder samples, PAX8 inhibitor project, dose response (AID 743044); assay type: functional, cell-based
[2] = OVCAR8 cell viability loss – plate reader, dry powder samples, PAX8 project, dose response (AID 743197); assay type: functional, cell-based; conditions: OVCAR-8
[3] = toxicity toward immortalized ovarian surface epithelium – cell-based, plate reader, dry powder samples, cytotoxicity control for PAX8 inhibitor project, dose response (AID 743045); assay type: functional
[4] = A2780 cell killing – plate reader, dry powder samples, cytotoxicity control, dose response (AID 743046); assay type: functional, cell-based
[5] = target: Arf-GAP with SH3 domain, ANK repeat and PH domain-containing protein 1 (Homo sapiens, UniProt Q9ULH1); assay type: functional;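 also: biochemical fluorescence polarization dose–response screen measuring inhibition of ASAP1; ASAP1 GAP domain stimulating GTP hydrolysis by truncated human ARF1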
Sequence of Arf-GAP with SH3 domain, ANK repeat and PH domain-containing protein 1 (Q9ULH1 whole entry, the tested form may be a part): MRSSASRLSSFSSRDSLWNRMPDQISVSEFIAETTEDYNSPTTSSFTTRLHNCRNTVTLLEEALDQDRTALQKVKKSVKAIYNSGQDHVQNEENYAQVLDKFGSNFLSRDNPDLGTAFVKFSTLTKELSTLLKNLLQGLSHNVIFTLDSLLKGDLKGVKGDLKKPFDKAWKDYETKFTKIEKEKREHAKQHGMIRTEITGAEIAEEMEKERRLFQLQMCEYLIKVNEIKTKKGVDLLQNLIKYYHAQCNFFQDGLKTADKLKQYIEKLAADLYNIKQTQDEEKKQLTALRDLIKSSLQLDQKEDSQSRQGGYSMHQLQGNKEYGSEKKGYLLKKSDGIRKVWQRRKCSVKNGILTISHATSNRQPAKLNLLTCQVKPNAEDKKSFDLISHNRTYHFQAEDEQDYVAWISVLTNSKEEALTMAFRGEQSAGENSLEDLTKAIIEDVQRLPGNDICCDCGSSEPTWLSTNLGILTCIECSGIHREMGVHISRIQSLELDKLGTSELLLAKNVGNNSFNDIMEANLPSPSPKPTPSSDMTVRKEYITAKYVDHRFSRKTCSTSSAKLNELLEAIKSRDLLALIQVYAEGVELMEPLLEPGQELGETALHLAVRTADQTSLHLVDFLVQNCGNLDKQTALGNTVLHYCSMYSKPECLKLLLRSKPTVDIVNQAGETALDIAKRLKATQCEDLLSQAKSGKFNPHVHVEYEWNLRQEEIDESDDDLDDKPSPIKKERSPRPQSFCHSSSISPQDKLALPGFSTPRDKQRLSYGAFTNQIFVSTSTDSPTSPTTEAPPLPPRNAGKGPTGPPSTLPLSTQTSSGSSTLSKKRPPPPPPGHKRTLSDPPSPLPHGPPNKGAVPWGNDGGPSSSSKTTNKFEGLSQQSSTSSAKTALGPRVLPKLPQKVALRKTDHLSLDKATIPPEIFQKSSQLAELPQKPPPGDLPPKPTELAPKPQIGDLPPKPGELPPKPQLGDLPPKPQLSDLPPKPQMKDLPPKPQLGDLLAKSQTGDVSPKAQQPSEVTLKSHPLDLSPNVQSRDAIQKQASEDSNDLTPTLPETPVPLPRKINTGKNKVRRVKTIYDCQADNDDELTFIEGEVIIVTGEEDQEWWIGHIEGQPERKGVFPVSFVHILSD

[6] = target: T1, Oxysterols receptor LXR-beta (Homo sapiens, UniProt P55055); assay type: functional, cell-based
T1 sequence (P55055 whole entry): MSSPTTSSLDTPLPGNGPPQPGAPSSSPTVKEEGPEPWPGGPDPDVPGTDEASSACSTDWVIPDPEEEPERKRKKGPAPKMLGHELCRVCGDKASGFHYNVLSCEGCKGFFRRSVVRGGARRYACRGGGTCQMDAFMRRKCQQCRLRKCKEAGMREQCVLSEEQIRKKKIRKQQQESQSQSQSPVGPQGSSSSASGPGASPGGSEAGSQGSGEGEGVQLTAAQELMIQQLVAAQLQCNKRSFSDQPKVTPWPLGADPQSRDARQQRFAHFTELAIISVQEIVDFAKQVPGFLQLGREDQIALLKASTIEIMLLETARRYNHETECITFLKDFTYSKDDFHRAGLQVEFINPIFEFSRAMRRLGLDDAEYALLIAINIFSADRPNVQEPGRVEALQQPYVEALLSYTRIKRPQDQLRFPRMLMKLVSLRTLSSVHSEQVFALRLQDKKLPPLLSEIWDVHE

[7] = Luminescence-based cell-based high throughput dose response assay to identify activators of the DAF-12 from the parasite S. stercoralis (ssDAF-12).; assay type: functional
[8] = general cell-killing toxicity readout – plate reader, dry powder samples, cytotoxicity control for PAX8 inhibitor project, dose response (AID 743021); assay type: functional, cell-based
[9] = CMV-driven luciferase expression suppression in HEK293 – cell-based, luminescence, dry powder, counter-screen for Pax8 inhibitor project, dose response (AID 743020); assay type: functional
[10] = IGROV1 cell killing – plate reader, dry powder samples, PAX8 inhibitor project, dose response (AID 743043); assay type: functional, cell-based; conditions: IGROV-1
[11] = target: 5-hydroxytryptamine receptor 2A (Mus musculus, UniProt P35363); assay type: functional, cell-based;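 also: CHO-K1 cells with tagged receptor and beta-arrestin; agonist potency measured as compound-induced activation of the receptor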
Sequence of 5-hydroxytryptamine receptor 2A (P35363 whole entry): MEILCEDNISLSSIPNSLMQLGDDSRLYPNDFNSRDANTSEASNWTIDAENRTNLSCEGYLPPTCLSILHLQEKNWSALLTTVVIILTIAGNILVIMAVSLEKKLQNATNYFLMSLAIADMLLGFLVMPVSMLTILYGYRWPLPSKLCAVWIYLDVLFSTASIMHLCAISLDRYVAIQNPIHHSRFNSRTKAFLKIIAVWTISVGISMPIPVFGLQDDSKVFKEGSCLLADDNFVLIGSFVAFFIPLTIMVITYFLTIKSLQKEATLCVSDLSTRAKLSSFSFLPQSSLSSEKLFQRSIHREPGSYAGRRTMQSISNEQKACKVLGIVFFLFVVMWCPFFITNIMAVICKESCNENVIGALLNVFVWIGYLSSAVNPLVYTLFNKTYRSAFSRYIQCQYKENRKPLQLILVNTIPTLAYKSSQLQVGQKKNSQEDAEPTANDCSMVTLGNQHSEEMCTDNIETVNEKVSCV

Mu-type opioid receptor = Mu-type opioid receptor (Homo sapiens, UniProt P35372); assay type: functional, cell-based;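 also: U2OS cells with beta-arrestin recruitment to OPRM1 by beta-gal complementation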
Sequence of Mu-type opioid receptor (P35372 whole entry): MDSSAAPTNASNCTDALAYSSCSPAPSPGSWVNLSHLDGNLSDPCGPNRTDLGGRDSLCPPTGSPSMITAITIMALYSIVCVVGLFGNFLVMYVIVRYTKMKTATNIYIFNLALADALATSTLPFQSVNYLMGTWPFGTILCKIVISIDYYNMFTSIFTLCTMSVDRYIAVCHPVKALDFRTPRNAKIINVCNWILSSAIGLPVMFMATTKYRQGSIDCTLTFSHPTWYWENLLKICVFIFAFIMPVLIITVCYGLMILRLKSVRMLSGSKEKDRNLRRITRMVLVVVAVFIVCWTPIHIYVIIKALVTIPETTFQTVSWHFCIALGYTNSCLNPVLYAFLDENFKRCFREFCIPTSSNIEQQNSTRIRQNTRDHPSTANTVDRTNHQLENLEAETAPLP

[12] = inhibitors of non-replicating M. tuberculosis, dose response, luciferase, dry powder (AID 651619); assay type: functional; conditions: Mycobacterium tuberculosis
[13] = inhibitors of non-replicating M. tuberculosis, dose response, luciferase, dry powder (AID 651620); assay type: functional; conditions: Mycobacterium tuberculosis
[14] = viability loss in HEK293T cells – cell-based, CellTiter-Glo luminescence, dry powder, set 6, cytotoxicity control, dose response (AID 651949); assay type: functional; conditions: HEK293
[15] = target: T1, Oxysterols receptor LXR-beta; assay type: functional, cell-based; remark: listed apart in the source
Kallikrein-7 = Kallikrein-7 (Homo sapiens, UniProt P49862); experiment: Fluorescence Intensity-based biochemical primary high throughput dose response assay to identify activators of kallikrein-7 (K7) zymogen.
Sequence of Kallikrein-7 (P49862 whole entry): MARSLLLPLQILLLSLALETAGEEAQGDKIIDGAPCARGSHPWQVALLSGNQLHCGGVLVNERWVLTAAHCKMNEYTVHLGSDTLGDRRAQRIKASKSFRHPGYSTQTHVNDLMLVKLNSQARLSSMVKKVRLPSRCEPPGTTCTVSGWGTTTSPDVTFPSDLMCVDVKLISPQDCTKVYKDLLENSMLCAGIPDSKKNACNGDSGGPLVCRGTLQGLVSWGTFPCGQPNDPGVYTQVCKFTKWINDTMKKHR

[16] = Inhibition of T. cruzi Tulahuen strain amastigotes in L-6 muscle cells Measured in Cell-Based and Microorganism Combination System Using Plate Reader - 2138-03_Inhibitor_Dose_CherryPick_Activity.; assay type: functional; conditions: Rattus norvegicus, L6
[17] = Inhibition of Plasmodium falciparum NF54 Measured in Cell-Based System Using Plate Reader - 2138-11_Inhibitor_Dose_CherryPick_Activity.; assay type: functional
[18] = L6 myocyte viability loss – cell-based, plate reader, cherry-pick, cytotoxicity control, dose response (AID 651896); assay type: functional
[19] = African trypanosome bloodstream form growth inhibition – STIB900 strain, plate reader, cherry pick, dose response (AID 651893); assay type: functional, cell-based, Trypanosoma brucei rhodesiense; conditions: Trypanosoma brucei
[20] = intracellular Trypanosoma cruzi inhibitors in host cells – cell-based, plate reader, cherry-pick samples, set 3, dose response (AID 651818); assay type: functional;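 also: compounds incubated with infected cells for about four days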
[21] = antileishmanial activity on axenic amastigotes – plate reader, cherry pick, dose response (AID 651891); assay type: functional, cell-based; conditions: Leishmania donovani

Sequence of Paired box protein Pax-8 (Q06710 whole entry): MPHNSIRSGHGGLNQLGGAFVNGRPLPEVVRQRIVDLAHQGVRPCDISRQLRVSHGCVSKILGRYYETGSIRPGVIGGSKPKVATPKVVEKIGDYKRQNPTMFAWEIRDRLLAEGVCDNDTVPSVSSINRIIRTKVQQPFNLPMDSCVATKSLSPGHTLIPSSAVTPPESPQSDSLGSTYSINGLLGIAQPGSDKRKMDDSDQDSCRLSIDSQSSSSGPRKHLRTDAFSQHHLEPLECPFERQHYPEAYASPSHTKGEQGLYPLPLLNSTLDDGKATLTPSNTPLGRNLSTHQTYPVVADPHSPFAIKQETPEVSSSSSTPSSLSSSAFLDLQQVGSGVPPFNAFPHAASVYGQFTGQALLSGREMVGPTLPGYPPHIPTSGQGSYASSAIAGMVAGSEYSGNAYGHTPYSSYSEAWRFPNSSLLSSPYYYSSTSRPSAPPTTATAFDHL

For `C[C@H]1CCCCO[C@H](CN(C)C(=O)Nc2ccc(C(F)(F)F)cc2)[C@@H](C)CN([C@@H](C)CO)C(=O)c2cc(NC(=O)Nc3ccc(F)cc3)ccc2O1`, the AC50 (Paired box protein Pax-8) was 3.62 µM (active), the AC50 [1] was 11.2 µM (active) and the AC50 [2] was 23.7 µM (active). The AC50 [3] was 50.8 µM (active) and the AC50 [4] was 52.4 µM (active).

In the case of `Clc1ccc(OCc2nn3c(-c4ccco4)nnc3s2)c(Cl)c1`, the IC50 [5] is reported as 22.8 µM (inactive).

With `COc1ccc(Nc2nc(-c3ccccc3)cs2)cc1` the EC50 [6] was > 67.5 µM (inactive), the EC50 (cells) was > 67.5 µM (inactive) and the IC50 [7] was > 67.5 µM (inactive).

With `C[C@@H]1CN([C@H](C)CO)C(=O)c2cc(NS(=O)(=O)c3ccccc3)ccc2O[C@@H](C)CCCCO[C@@H]1CN(C)Cc1ccc(C(F)(F)F)cc1` the AC50 [8] was 49 µM (active), the AC50 (Paired box protein Pax-8) was 5.74 µM (active) and the AC50 [9] was 65.4 µM (active). The AC50 [1] was 27.4 µM (active), the AC50 [2] was 39 µM (active) and the AC50 [10] was 35.4 µM (active). For the same compound, the AC50 [4] was 34.8 µM (active).

In the case of `FC(F)(F)c1cccc(CN2CCN(c3ncccn3)CC2)c1`, the EC50 [11] is reported as 4.16 µM (active) and the EC50 (Mu-type opioid receptor) is reported as 92.4 µM (inactive).

With `c1ccc(Cn2cc(CSc3nnc(-c4ccccc4)o3)nn2)cc1` the IC90 [12] was 2 µM (active) and the IC90 [13] was 2 µM (active).

With `c1ccc(CSc2nnc(C3CCCC3)o2)cc1` the AC50 [14] was > 52 µM (inactive).

In the case of `CCOC(=O)CSc1nc(-c2ccncc2)ccc1C#N`, the EC50 [15] is reported as > 67.5 µM (inactive).

With `COc1ccc2ccccc2c1C=NNC(=O)c1cc(-c2ccc(C)c(C)c2)[nH]n1` the EC50 (Kallikrein-7) was > 2.57 µM (active).

For `COc1ccc(CN(C)C[C@H]2Oc3c(NC(=O)c4ccncc4)cccc3C(=O)N([C@H](C)CO)C[C@@H]2C)cc1`, the IC50 [16] was 7.39 µM (inactive), the IC50 [17] was 7.39 µM (inactive) and the IC50 [18] was > 100 µM (inactive). The IC50 [19] was 20.2 µM (inactive), the AC50 [20] was 0.206 µM (active) and the IC50 [21] was > 100 µM (inactive).
